Here are results for 8 compounds from patent US8148362B2, “Compound having heterocyclic ring” (Research Foundation Itsuu Laboratory, priority 2006, dated 2012).

By MIC is commonly meant the least concentration at which growth counts as inhibited. One may read the melting point as the temperature, or range, at which the solid turns liquid.

A value given as a limit tells only on which side of the number the result lay.

The test system of data set [1] is E. faecalis SR7914. Kind of data set: MIC by CLSI standard method (Test Example 1). The data set is classed as cell-based. To be noted: Enterococcus faecalis, cation-adjusted Mueller Hinton Broth, about 5×10^5 CFU/mL. How it is done:
(§1) Minimal inhibitory concentration (MIC: μg/ml) against different strains of bacteria was assayed according to the standard method recommended by CLSI (clinical and laboratory standards institute). Samples were prepared from test compound solution in DMSO (1280 μg/mL) by two fold (serial) dilution with DMSO. The sample was added to bacteria suspension at the concentration of 5%, and MIC was determined. Mueller Hinton Broth, which has been adjusted for cation concentration, was used for culture media in this test. The inoculation concentration was about 5×10^5 CFU/mL.

In data set [2] the test system is E. faecalis ATCC 29212. Put plainly: MIC by CLSI standard method (Test Example 1). Type of data set: cell-based. The conditions noted are these: Enterococcus faecalis, ATCC29212, cation-adjusted Mueller Hinton Broth, about 5×10^5 CFU/mL. How it is done:
as §1

For a further data set, the system named is S. aureus ATCC 700787. Put plainly: MIC by CLSI standard method (Test Example 1). The data set is classed as cell-based. The conditions noted are these: Staphylococcus aureus, ATCC700787, cation-adjusted Mueller Hinton Broth, about 5×10^5 CFU/mL. How it is done:
as §1

The subject of data set [3] is S. aureus FDA 209P. Put plainly: MIC by CLSI standard method (Test Example 1). Type of data set: cell-based. To be noted: Staphylococcus aureus, FDA209P, cation-adjusted Mueller Hinton Broth, about 5×10^5 CFU/mL. Here is the method:
as §1

Another data set relates to S. aureus smith. Put plainly: MIC by CLSI standard method (Test Example 1). Type of data set: cell-based. To be noted: Staphylococcus aureus, cation-adjusted Mueller Hinton Broth, about 5×10^5 CFU/mL. Here is the method:
as §1

A further data set deals with E. faecium SR7917. Kind of data set: MIC by CLSI standard method (Test Example 1). The data set is classed as cell-based. To be noted: Enterococcus faecium, cation-adjusted Mueller Hinton Broth, about 5×10^5 CFU/mL. Here is the method:
as §1

Data set [4] deals with E. faecalis SR7914. Put plainly: MIC of quinolone compounds (Test Example 2). Type of data set: cell-based. To be noted: Enterococcus faecalis, procedure of Test Example 1. How it is done:
as §1
(§2) The quinolone compounds of the invention were tested for antimicrobial activity according to the procedure in Test Example 1.

In data set [5] the test system is E. faecalis ATCC 29212. Kind of data set: MIC of quinolone compounds (Test Example 2). The data set is classed as cell-based. To be noted: Enterococcus faecalis, ATCC29212, procedure of Test Example 1. Here is the method: as §1, §2
A further data set concerns S. aureus SR3637. Kind of data set: MIC of quinolone compounds (Test Example 2). The data set is classed as cell-based. The conditions noted are these: Staphylococcus aureus, procedure of Test Example 1. Here is the method:
as §1, §2

For data set [6], the system named is S. aureus FDA 209P. Put plainly: MIC of quinolone compounds (Test Example 2). The data set is classed as cell-based. The conditions noted are these: Staphylococcus aureus, FDA209P, procedure of Test Example 1. How it is done:
as §1, §2

On to `O=C(NC[C@H]1CN(c2cc(F)c(N3CCNN(C(=O)Nc4ccncc4)CC3)c(F)c2)C(=O)O1)C(F)F` [Example 86], for which the MIC against E. faecalis SR7914 [1], in the data set with E. faecalis ATCC 29212 [2], against S. aureus ATCC 700787, in the data set with S. aureus FDA 209P [3], with S. aureus smith and against E. faecium SR7917 was at most 1 mg/L throughout.
For `CC(=O)NC[C@H]1CN(c2cc(F)c(N3CCNN(C(=O)Nc4ccncc4)CC3)c(F)c2)C(=O)O1` [Example 85], the minimal inhibitory concentration (MIC) in the data set with E. faecalis SR7914 [1], with E. faecalis ATCC 29212 [2], against S. aureus ATCC 700787, in the data set with S. aureus FDA 209P [3], in the data set with S. aureus smith and against E. faecium SR7917 was at most 1 mg/L throughout.
Regarding `O=C(NC[C@H]1CN(c2cc(F)c(N3CCNN(C(=O)Nc4nccs4)CC3)c(F)c2)C(=O)O1)C(F)F` [Example 84], the minimal inhibitory concentration (MIC) with E. faecalis SR7914 [1], in the data set on E. faecalis ATCC 29212 [2], against S. aureus ATCC 700787, against S. aureus FDA 209P [3], against S. aureus smith and with E. faecium SR7917 was at most 1 mg/L throughout.
`CC(=O)NC[C@H]1CN(c2cc(F)c(N3CCNN(C(=O)Nc4nccs4)CC3)c(F)c2)C(=O)O1` [Example 83]: the minimum inhibitory concentration (MIC) in the data set on E. faecalis SR7914 [1], in the data set on E. faecalis ATCC 29212 [2], in the data set with S. aureus ATCC 700787, against S. aureus FDA 209P [3], in the data set on S. aureus smith and in the data set with E. faecium SR7917 was at most 1 mg/L each time.
`CC(=O)NC[C@H]1CN(c2cc(F)c(N3CCNN(C(=O)CO)CC3)c(F)c2)C(=O)O1` [Example 91]: the minimum inhibitory concentration (MIC) in the data set with E. faecalis SR7914 [1], against E. faecalis ATCC 29212 [2], with S. aureus ATCC 700787, with S. aureus FDA 209P [3], in the data set on S. aureus smith and against E. faecium SR7917 was at most 1 mg/L throughout.
`O=C(NC[C@H]1CN(c2cc(F)c(N3CCn4c(=O)c5cccnc5n4CC3)c(F)c2)C(=O)O1)C(F)F` [Example 82]: the MIC against E. faecalis SR7914 [1], against E. faecalis ATCC 29212 [2], in the data set with S. aureus ATCC 700787, against S. aureus FDA 209P [3], with S. aureus smith and in the data set on E. faecium SR7917 was at most 1 mg/L throughout.
`COc1c(N2CCNOCC2)c(F)cc2c(=O)c(C(=O)O)cn(C3CC3)c12` [Compound (71)] came in with a melting point of 222 to 224 °C. For the same compound, the minimum inhibitory concentration (MIC) with E. faecalis SR7914 [4] was at most 1 mg/L. Also, in the data set on E. faecalis ATCC 29212 [5], the MIC is at most 1 mg/L. In addition, the MIC with S. aureus SR3637 was at most 1 mg/L. In addition, in the data set with S. aureus FDA 209P [6], the MIC was at most 1 mg/L.
Take `CC(=O)NC[C@H]1CN(c2cc(F)c(N3CCn4c(=O)c5cccnc5n4CC3)c(F)c2)C(=O)O1` [Example 81]: the MIC against E. faecalis SR7914 [1], in the data set with E. faecalis ATCC 29212 [2], against S. aureus ATCC 700787, with S. aureus FDA 209P [3], against S. aureus smith and with E. faecium SR7917 was at most 1 mg/L each time.
